Assay results: US20250326748A1, “COMPOUNDS AND METHODS FOR MODULATING SPLICING” (REMIX THERAPEUTICS INC., priority 2022, published 2025)
Read-outs that look alike come from different tables or passages of the source.

Legend:
MYB mRNA = assay: Splicing RT-qPCR assay, MYB canonical (CJ) and alternative (AJ) junction mRNA; format: cell-based, human; conditions: Homo sapiens; for IC50: canonical junction mRNA; for AC50: alternative junction mRNA, read-out: MYB AJ (AC50, increase in AJ mRNA)
Outline: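 Treatment of A673 or K562 cultures with compounds (eleven-point titration, highest final 10 uM, ≤0.25% DMSO) ran one day at 37 °C. Afterwards cells were lysed directly in the well, and cDNA synthesis coupled with qPCR measured CJ and AJ isoform levels against a reference transcript.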

K562 cells = assay: Cell viability, Cell Titer Glo 2.0 assay, K562; conditions: 72 hours
[1] = qPCR panel, read-out: MYB CJ (decrease in CJ mRNA levels, IC50)
[2] = RT-qPCR, A673 or K562 cells, 24 hours treatment
[3] = RT-qPCR, A673 or K562 cells, 24 hours treatment, read-out: MYB CJ (IC50, decrease in CJ mRNA)

| SMILES | IC50 (MYB mRNA; [1]) [nM] | AC50 (MYB mRNA; [2]) [nM] | IC50 (MYB mRNA; [3]) [nM] | Effect on Cell Viability, K562 (K562 cells) |
| --- | --- | --- | --- | --- |
| C[C@@H]1CN(c2cnc3nc(-c4cc(C#N)c5nn(C)cc5c4)cc(Cl)c3c2)C[C@H](C)N1 [Compound 325, 5-(4-chloro-6-((3R,5S)-3,5-dimethylpiperazin-1-yl)-1,8-naphthyridin-2-yl)-2-methyl-2H-indazole-7-carbonitrile 2,2,2-trifluoroacetate] | 100 to 1000 | 1000 to 10000 | 100 to 1000 | C (1000-9999 nM) |
| Cc1c(O)c(-c2cc(Cl)c3cc(N4CCC(N(C)C)C4)cnc3n2)cc2cn(C)nc12 (centres unmarked) [Compound 143, 5-{4-chloro-6-[3-(dimethylamino)357pyrrolidine-1-yl]-1,8-naphthyridin-2-yl}-2,7-dimethylindazol-6-ol] | < 100 | < 100 | < 100 | B (100-1000 nM) |
